Test system: splenocytes
Test: Splenic cell proliferation assay (anti-IgM stimulated, Cell Titer-Glo)
Type: cell-based
Settings: Splenocyte; CD1 mouse splenocytes, 1 h pre-treatment, 2.5 ug/ml anti-IgM F(ab')2 for 72 h; read-out: EC50 (nM), Inhibition of splenic cell proliferation
Text: Cellular Assay Splenic Cell Proliferation Assay
Proliferation of splenocytes in response to anti-IgM can be blocked by inhibition of Btk. Splenocytes were obtained from 6 week old male CD1 mice (Charles River Laboratories Inc.). Mouse spleens were manually disrupted in PBS and filtered using a 70 um cell strainer followed by ammonium chloride red blood cell lysis. Cells were washed, resuspended in Splenocyte Medium (HyClone RPMI supplemented with 10% heat-inactivated FBS, 0.5× non-essential amino acids, 10 mM HEPES, 50 uM beta mercaptoethanol) and incubated at 37° C., 5% CO2 for 2 h to remove adherent cells. Suspension cells were seeded in 96 well plates at 50,000 cells per well and incubated at 37° C., 5% CO2 for 1 h. Splenocytes were pre-treated in triplicate with 10,000 nM curves of Formula I compounds for 1 h, followed by stimulation of cell proliferation with 2.5 ug/ml anti-IgM F(ab′)2 (Jackson ImmunoResearch) for 72 h. Cell proliferation was measured by Cell Titer-Glo Luminescent Assay (Promega). EC50 values (50% proliferation in the presence of compound as compared to vehicle treated controls) were calculated from dose response compound curves using GraphPad Prism Software.

Compound	EC50
Cc1ncc(COc2cc(F)cc(Oc3ccc(-c4nc(C(C)C)n5ccnc(N)c45)cc3)c2)s1 [Compound 1]	< 100 nM
Cc1ncc(COc2cc(F)cc(Oc3ccc(-c4nc(C(C)C)n5ccnc(N)c45)cc3)c2)cn1 [Compound 2]	< 100 nM
Cc1ccc(COc2cc(F)cc(Oc3ccc(-c4nc(C(C)C)n5ccnc(N)c45)cc3)c2)cn1 [Compound 3]	< 100 nM
Cc1ncc(COc2cc(F)cc(Oc3ccc(-c4nc(C5CCCC5)n5ccnc(N)c45)cc3)c2)s1 [Compound 4]	< 100 nM
Cc1ccc(COc2cc(F)cc(Oc3ccc(-c4nc(C5CCCC5)n5ccnc(N)c45)cc3)c2)cn1 [Compound 5]	< 100 nM
Cc1ncc(COc2cc(F)cc(Oc3ccc(-c4nc(C5CCCC5)n5ccnc(N)c45)cc3)c2)cn1 [Compound 6]	< 100 nM
Cc1ncc(COc2cc(F)cc(Oc3ccc(-c4nc(C5CCOCC5)n5ccnc(N)c45)cc3)c2)s1 [Compound 7]	< 100 nM
Cc1ccc(COc2cc(F)cc(Oc3ccc(-c4nc(C5CCOCC5)n5ccnc(N)c45)cc3)c2)cn1 [Compound 8]	< 100 nM
Cc1ncc(COc2cc(F)cc(Oc3ccc(-c4nc(C5CCOCC5)n5ccnc(N)c45)cc3)c2)cn1 [Compound 9]	< 100 nM
Cc1ncc(COc2cc(F)cc(Oc3ccc(-c4nc(C5CC5)n5ccnc(N)c45)cc3)c2)s1 [Compound 10]	< 100 nM
Cc1ncc(COc2cc(F)cc(Oc3ccc(-c4nc(C5CC5)n5ccnc(N)c45)cc3)c2)cn1 [Compound 11]	< 100 nM
Cc1ncc(COc2cc(F)cc(Oc3ccc(-c4nc(C5(C)COC5)n5ccnc(N)c45)cc3)c2)cn1 [Compound 12]	< 100 nM
Cc1ncc(COc2cc(F)cc(Oc3ccc(-c4nc([C@H]5C[C@@](C)(O)C5)n5ccnc(N)c45)cc3)c2)cn1 [Compound 13]	< 100 nM
Cc1ncc(COc2cc(F)cc(Oc3ccc(-c4nc(C5CC(O)(CO)C5)n5ccnc(N)c45)cc3)c2)s1 (stereo not shown) [Compound 14]	< 100 nM
Cc1ncc(COc2cc(F)cc(Oc3ccc(-c4nc(C5(C)COC5)n5ccnc(N)c45)cc3)c2)s1 [Compound 15]	< 100 nM
Cc1ncc(COc2cc(F)cc(Oc3ccc(-c4nc([C@H]5C[C@@](C)(O)C5)n5ccnc(N)c45)cc3)c2)s1 [Compound 16]	< 100 nM

Compound	EC50
Cc1ncc(COc2cc(F)cc(Oc3ccc(-c4nc(C5CC(=O)C5)n5ccnc(N)c45)cc3)c2)s1 [Compound 17]	< 100 nM
Cc1ncc(COc2cc(F)cc(Oc3ccc(-c4nc(CCN5CCCC5)n5ccnc(N)c45)cc3)c2)cn1 [Compound 18]	100 to 1000 nM
Cc1ncc(COc2cc(F)cc(Oc3ccc(-c4nc(C5CC(O)(CO)C5)n5ccnc(N)c45)cc3)c2)cn1 (stereo not shown) [Compound 19]	< 100 nM
Cc1ncc(COc2cc(F)cc(Oc3ccc(-c4nc([C@H]5C[C@@H](N6CCN(C)CC6)C5)n5ccnc(N)c45)cc3)c2)s1 [Compound 20]	< 100 nM
Cc1ncc(COc2cc(F)cc(Oc3ccc(-c4nc(C5CC(=O)C5)n5ccnc(N)c45)cc3)c2)cn1 [Compound 21]	< 100 nM
Cc1ncc(COc2cc(F)cc(Oc3ccc(-c4nc([C@@H]5CCCNC5)n5ccnc(N)c45)cc3)c2)cn1 [Compound 22]	< 100 nM
CC(=O)N1CCC[C@@H](c2nc(-c3ccc(Oc4cc(F)cc(OCc5cnc(C)nc5)c4)cc3)c3c(N)nccn23)C1 [Compound 24]	< 100 nM
C[C@]1(O)C[C@@H](c2nc(-c3ccc(Oc4cc(F)cc(OCc5ccccc5)c4)cc3)c3c(N)nccn32)C1 [Compound 25]	< 100 nM
CC(=O)N1CC(c2nc(-c3ccc(Oc4cc(F)cc(OCc5cnc(C)nc5)c4)cc3)c3c(N)nccn23)C1 [Compound 26]	< 100 nM
Cc1ncc(COc2cc(F)cc(Oc3ccc(-c4nc(C5CNC5)n5ccnc(N)c45)cc3)c2)cn1 [Compound 27]	100 to 1000 nM
Cc1ncc(COc2cc(F)cc(Oc3ccc(-c4nc([C@H]5C[C@@H](O)C5)n5ccnc(N)c45)cc3)c2)cn1 [Compound 29]	< 100 nM
Cc1ncc(COc2cc(F)cc(Oc3ccc(-c4nc(C5CCNCC5)n5ccnc(N)c45)cc3)c2)cn1 [Compound 30]	< 100 nM
CC(=O)N1CCC(c2nc(-c3ccc(Oc4cc(F)cc(OCc5cnc(C)nc5)c4)cc3)c3c(N)nccn23)CC1 [Compound 31]	< 100 nM
Cc1ncc(COc2cc(F)cc(Oc3ccc(-c4nc([C@H]5C[C@@H](N6CCOCC6)C5)n5ccnc(N)c45)cc3)c2)cn1 [Compound 33]	< 100 nM
Cc1ncc(COc2cc(F)cc(Oc3ccc(-c4nc([C@@H]5CCCN(C6COC6)C5)n5ccnc(N)c45)cc3)c2)cn1 [Compound 34]	< 100 nM
CC(C)c1nc(-c2ccc(Oc3cc(F)cc(OCc4ccc(CO)nc4)c3)cc2)c2c(N)nccn12 [Compound 35]	< 100 nM

Biological target: human BTK kinase (hBTK) (Homo sapiens (Human), UniProt Q06187)
Sequence (Q06187 whole entry): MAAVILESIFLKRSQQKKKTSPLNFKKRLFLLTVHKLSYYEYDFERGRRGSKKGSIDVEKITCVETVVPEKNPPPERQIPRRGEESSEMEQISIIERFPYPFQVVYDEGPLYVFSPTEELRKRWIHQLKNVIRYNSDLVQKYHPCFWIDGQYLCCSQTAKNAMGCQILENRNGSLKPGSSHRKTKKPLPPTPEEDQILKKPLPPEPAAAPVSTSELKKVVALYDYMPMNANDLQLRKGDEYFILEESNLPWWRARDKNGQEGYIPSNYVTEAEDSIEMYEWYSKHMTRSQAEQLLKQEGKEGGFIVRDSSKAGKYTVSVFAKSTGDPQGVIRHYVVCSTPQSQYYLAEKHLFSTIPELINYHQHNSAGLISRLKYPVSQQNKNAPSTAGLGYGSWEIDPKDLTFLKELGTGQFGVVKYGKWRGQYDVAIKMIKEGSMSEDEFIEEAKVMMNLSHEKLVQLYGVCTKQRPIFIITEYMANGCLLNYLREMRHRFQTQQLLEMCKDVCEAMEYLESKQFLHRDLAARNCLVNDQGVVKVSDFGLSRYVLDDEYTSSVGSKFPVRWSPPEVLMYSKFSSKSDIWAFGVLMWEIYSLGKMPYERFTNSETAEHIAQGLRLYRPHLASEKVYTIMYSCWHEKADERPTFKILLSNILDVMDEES
Test: Btk kinase inhibition assay, Method B (KinaseProfiler radiometric protein kinase assay, Eurofins)
Type: biochemical
Settings: [γ-33P-ATP], 40 minutes room temperature
Method: In vitro potency of selected compound was defined against human BTK kinase (hBTK) using KinaseProfiler radiometric protein kinase assays performed at Eurofins Pharma Discovery Services UK Limited.
hBTK kinase is diluted in buffer and all compounds were prepared to 50× final assay concentration in 100% DMSO. This working stock of the compound was added to the assay well as the first component in the reaction, followed by the remaining components as detailed in the assay protocol listed above. The reaction was initiated by the addition of the MgATP mix. The kinase reaction was performed at room temperature for 40 minutes in presence of 250 μM substrate, 10 mM MgAcetate, [γ-33P-ATP] (specific activity approx. 500 cpm/pmol, concentration as required) and variable test article concentrations. The ATP concentrations in the assays were with 15 μM of the apparent. The reaction was stopped by the addition of 3% phosphoric acid solution. 10 μL of the reaction is then spotted onto a P30 filtermat and washed three times for 5 minutes in 75 mM phosphoric acid and once in methanol prior to drying and scintillation counting. In addition positive control wells contain all components of the reaction, except the compound of interest; however, DMSO (at a final concentration of 2%) were included in these wells to control for solvent effects as well as blank wells contain all components of the reaction, with a reference inhibitor replacing the compound of interest. This abolishes kinase activity and establishes the base-line (0% kinase activity remaining). The potency of each compound was reported by estimating the EC50.

Compound	EC50
Cc1ncc(COc2cc(F)cc(Oc3ccc(-c4nc([C@H]5C[C@@H](O)C5)n5ccnc(N)c45)cc3)c2)cn1 [Compound 29]	< 100 nM
Cc1ncc(COc2cc(F)cc(Oc3ccc(-c4nc(C5CCNCC5)n5ccnc(N)c45)cc3)c2)cn1 [Compound 30]	< 100 nM
CC(=O)N1CCC(c2nc(-c3ccc(Oc4cc(F)cc(OCc5cnc(C)nc5)c4)cc3)c3c(N)nccn23)CC1 [Compound 31]	< 100 nM
Cc1ncc(COc2cc(F)cc(Oc3ccc(-c4nc([C@H]5C[C@@H](N6CCOCC6)C5)n5ccnc(N)c45)cc3)c2)cn1 [Compound 33]	< 100 nM
Cc1ncc(COc2cc(F)cc(Oc3ccc(-c4nc([C@@H]5CCCN(C6COC6)C5)n5ccnc(N)c45)cc3)c2)cn1 [Compound 34]	< 100 nM
CC(C)c1nc(-c2ccc(Oc3cc(F)cc(OCc4ccc(CO)nc4)c3)cc2)c2c(N)nccn12 [Compound 35]	< 100 nM

Biological target: histidine tagged recombinant human full-length Bruton Agammaglobulinemia Tyrosine Kinase (Btk) (Homo sapiens (Human), UniProt Q06187)
Sequence (Q06187 whole entry): as above
Test: Btk kinase inhibition assay, Method A (fluorescence polarization, KinEASE FP Fluorescein Green)
Type: biochemical
Settings: 10 μM ATP, 250 μM substrate, 60 minutes room temperature, Ki calculated from IC50 by Cheng-Prusoff equation
Method: Btk Kinase Inhibition Assays
Fluorescence polarization-based kinase assays were performed in 384 well-plate format using histidine tagged recombinant human full-length Bruton Agammaglobulinemia Tyrosine Kinase (Btk) and a modified protocol of the KinEASE™ FP Fluorescein Green Assay supplied from Millipore®. Kinase reaction were performed at room temperature for 60 minutes in presence of 250 μM substrate, 10 μM ATP and variable test article concentrations. The reaction was stopped with EDTA/kinease detection reagents. Phosphorylation of the substrate peptide was detected by fluorescence polarization measured with a Tecan 500 instrument. From the dose-response curve obtained, the IC50 was calculated using Graph Pad Prisms® using a non linear fit curve. The Km for ATP on each enzyme was experimentally determined and the Ki values calculated using the Cheng-Prusoff equation (see: Cheng Y, Prusoff W. H. (1973) Relationship between the inhibition constant (K1) and the concentration of inhibitor which causes 50% inhibition (I50) of an enzymatic reaction”. Biochem. Pharmacol. 22 (23): 3099-108). ki values are reported in Tables 2a and 2b: […]

Compound	Ki
Cc1ncc(COc2cc(F)cc(Oc3ccc(-c4nc(C(C)C)n5ccnc(N)c45)cc3)c2)s1 [Compound 1]	< 100 nM
Cc1ncc(COc2cc(F)cc(Oc3ccc(-c4nc(C(C)C)n5ccnc(N)c45)cc3)c2)cn1 [Compound 2]	< 100 nM
Cc1ccc(COc2cc(F)cc(Oc3ccc(-c4nc(C(C)C)n5ccnc(N)c45)cc3)c2)cn1 [Compound 3]	< 100 nM
Cc1ncc(COc2cc(F)cc(Oc3ccc(-c4nc(C5CCCC5)n5ccnc(N)c45)cc3)c2)s1 [Compound 4]	< 100 nM
Cc1ccc(COc2cc(F)cc(Oc3ccc(-c4nc(C5CCCC5)n5ccnc(N)c45)cc3)c2)cn1 [Compound 5]	< 100 nM
Cc1ncc(COc2cc(F)cc(Oc3ccc(-c4nc(C5CCCC5)n5ccnc(N)c45)cc3)c2)cn1 [Compound 6]	< 100 nM
Cc1ncc(COc2cc(F)cc(Oc3ccc(-c4nc(C5CCOCC5)n5ccnc(N)c45)cc3)c2)s1 [Compound 7]	< 100 nM
Cc1ccc(COc2cc(F)cc(Oc3ccc(-c4nc(C5CCOCC5)n5ccnc(N)c45)cc3)c2)cn1 [Compound 8]	< 100 nM
Cc1ncc(COc2cc(F)cc(Oc3ccc(-c4nc(C5CCOCC5)n5ccnc(N)c45)cc3)c2)cn1 [Compound 9]	< 100 nM
Cc1ncc(COc2cc(F)cc(Oc3ccc(-c4nc(C5CC5)n5ccnc(N)c45)cc3)c2)s1 [Compound 10]	< 100 nM
Cc1ncc(COc2cc(F)cc(Oc3ccc(-c4nc(C5CC5)n5ccnc(N)c45)cc3)c2)cn1 [Compound 11]	< 100 nM
Cc1ncc(COc2cc(F)cc(Oc3ccc(-c4nc(C5(C)COC5)n5ccnc(N)c45)cc3)c2)cn1 [Compound 12]	< 100 nM
Cc1ncc(COc2cc(F)cc(Oc3ccc(-c4nc([C@H]5C[C@@](C)(O)C5)n5ccnc(N)c45)cc3)c2)cn1 [Compound 13]	< 100 nM
Cc1ncc(COc2cc(F)cc(Oc3ccc(-c4nc(C5CC(O)(CO)C5)n5ccnc(N)c45)cc3)c2)s1 (stereo not shown) [Compound 14]	< 100 nM
Cc1ncc(COc2cc(F)cc(Oc3ccc(-c4nc(C5(C)COC5)n5ccnc(N)c45)cc3)c2)s1 [Compound 15]	< 100 nM
Cc1ncc(COc2cc(F)cc(Oc3ccc(-c4nc([C@H]5C[C@@](C)(O)C5)n5ccnc(N)c45)cc3)c2)s1 [Compound 16]	< 100 nM
Cc1ncc(COc2cc(F)cc(Oc3ccc(-c4nc(C5CC(=O)C5)n5ccnc(N)c45)cc3)c2)s1 [Compound 17]	< 100 nM
Cc1ncc(COc2cc(F)cc(Oc3ccc(-c4nc(CCN5CCCC5)n5ccnc(N)c45)cc3)c2)cn1 [Compound 18]	< 100 nM
Cc1ncc(COc2cc(F)cc(Oc3ccc(-c4nc(C5CC(O)(CO)C5)n5ccnc(N)c45)cc3)c2)cn1 (stereo not shown) [Compound 19]	< 100 nM
Cc1ncc(COc2cc(F)cc(Oc3ccc(-c4nc([C@H]5C[C@@H](N6CCN(C)CC6)C5)n5ccnc(N)c45)cc3)c2)s1 [Compound 20]	< 100 nM
Cc1ncc(COc2cc(F)cc(Oc3ccc(-c4nc(C5CC(=O)C5)n5ccnc(N)c45)cc3)c2)cn1 [Compound 21]	< 100 nM
Cc1ncc(COc2cc(F)cc(Oc3ccc(-c4nc([C@@H]5CCCNC5)n5ccnc(N)c45)cc3)c2)cn1 [Compound 22]	< 100 nM
CC(=O)N1CCC[C@@H](c2nc(-c3ccc(Oc4cc(F)cc(OCc5cnc(C)nc5)c4)cc3)c3c(N)nccn23)C1 [Compound 24]	< 100 nM
C[C@]1(O)C[C@@H](c2nc(-c3ccc(Oc4cc(F)cc(OCc5ccccc5)c4)cc3)c3c(N)nccn32)C1 [Compound 25]	< 100 nM
CC(=O)N1CC(c2nc(-c3ccc(Oc4cc(F)cc(OCc5cnc(C)nc5)c4)cc3)c3c(N)nccn23)C1 [Compound 26]	< 100 nM
Cc1ncc(COc2cc(F)cc(Oc3ccc(-c4nc(C5CNC5)n5ccnc(N)c45)cc3)c2)cn1 [Compound 27]	< 100 nM

Source: patent US9822120B2, “Protein kinase inhibitors” (Pharmascience Inc., priority 2013, dated 2017)
